{
  "source": "patent US6255314A",
  "about": "“Cancerous metastasis inhibitors containing uracil derivatives” (Taiho Charmaceutical Co., Ltd., priority 1996, dated 2001)",
  "key": {"[1]": {"target": "T1, thymidine phosphorylase obtained from human placenta (Homo sapiens, UniProt P19971)", "T1 construct": "thymidine phosphorylase obtained from human placenta in a highly purified form; from tissue; host or cells: human placenta", "T1 sequence (P19971 11-482)": "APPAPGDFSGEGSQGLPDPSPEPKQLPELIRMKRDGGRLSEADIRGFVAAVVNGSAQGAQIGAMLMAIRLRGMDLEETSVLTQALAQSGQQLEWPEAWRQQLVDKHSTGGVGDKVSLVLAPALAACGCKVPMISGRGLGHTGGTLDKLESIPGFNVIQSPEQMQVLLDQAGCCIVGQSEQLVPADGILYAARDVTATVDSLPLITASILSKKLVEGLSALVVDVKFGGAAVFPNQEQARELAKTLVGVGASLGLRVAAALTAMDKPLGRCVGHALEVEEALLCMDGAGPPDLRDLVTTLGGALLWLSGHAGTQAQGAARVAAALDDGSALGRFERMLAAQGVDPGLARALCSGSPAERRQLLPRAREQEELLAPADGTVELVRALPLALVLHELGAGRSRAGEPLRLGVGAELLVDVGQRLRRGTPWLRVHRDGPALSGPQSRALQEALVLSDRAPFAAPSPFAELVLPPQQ", "experiment": "Test 1 (Thymidine Phosphorylase Inhibiting Effects)", "assay_type": "biochemical"}, "[2]": {"test_system": "TMK-1 (human gastric cancer) cells", "experiment": "Test 2 (Effects of Life Prolongation on Liver Metastasis Model)", "assay_type": "in vivo, BALB/c-nu/nu male mice; human gastric cancer cells", "conditions": "oral, everyday for 42 days; for Average # of survival time: control 63.4 days; for ILS (%) (increase of life span): vs control, 120 days observation", "description": "Effects of life prolongation were assessed using a liver metastasis model system consisting of BALB/c-nu/nu male mice (seven weeks old) each of which had been transplanted in the spleen thereof with 1×10^6 cells/mouse of TMK-1 (human gastric cancer) cells.\nSpecific experimental procedures were carried out by modifying the method proposed by Morikawa et al. in Cancer Research, 48, 1943-1948 (1988). Described specifically, cells which had been cultured in vitro were collected with 0.25%(w/v) trypsin-0.2%(w/v) EDTA and were then washed with a physiological phosphate buffer. The cells were next counted, followed by dilution to 1×10^6 cells/50 μl. Under anesthetization with 30 mg/kg of \"Nembutal\", each of the mice was incised at its left abdominal region and the spleen was then pulled out. The cell suspension of 10^6 cells/50 μl which had been prepared above was injected in an amount of 50 μl into the spleen by a syringe fitted with a 28-gauge injection needle. After the mouse was left over for 2 minutes, the blood vessel to the spleen was tied at two positions by ligating clips, respectively, and the spleen was cut off. The excised abdominal region was closed with a suturing stapler. Compound No. 29 of the present invention, in a form dissolved in distilled water, was orally administered everyday for 42 days from the day following the transplant. Using the increase of life span (ILS%) of a control as a reference, an assessment was conducted by observing the mouse for 120 days after the transplant of the cells to confirm its survival. The increase of life span (ILS%) was calculated in accordance with the following formula. [formula]"}, "[3]": {"test_system": "human colon cancer strain Co-3", "experiment": "Test 3 (Metastasis Inhibiting Effects on Liver Metastasis Model)", "assay_type": "in vivo, SPF KSN-nu/nu male mouse; human colon cancer", "conditions": "oral; for Number of metastasized mice: 6 courses (5 days on, 2 days off), control 4/6; for Metastasis inhibition rate (%): liver metastasis, 6 courses, vs control", "description": "About 100 mm^3 of human colon cancer strain Co-3 were transplanted to the cecum of each SPF KSN-nu/nu male mouse (seven weeks old). Two weeks after the transplant, a primary carcinoma lesion was removed by surgically cutting off the cecum. […] The administration was conducted for 6 courses, each consisting of administration of 5 straight days followed by a suspension of administration for 2 days. To mice in a control, only 0.5% (w/v) hydroxypropyl methylcellulose solution was orally administered. On the day following the completion of the administration, each mouse was sacrificed and metastasis to the liver was determined based on autopsy."}, "[4]": {"conditions": "inhibition of [6-^3H]thymine formation from [6-^3H]thymidine, 37° C., 5 minutes, pH 7.4, read-out: IC50"}},
  "note": "Where a name gives a salt, the structure may show the parent alone. Read-outs that look alike come from different tables or passages of the source.",
  "data": [
    {"smiles": "N#Cc1ccc(O)[nH]c1=O", "note": "[3-Cyano-2,6-dihydroxypyridine, reference compound]", "values": [
      {"measurement": "IC50", "setting": "[1]; [4]", "result": 130, "unit": "µM"}
    ]},
    {"smiles": "Cc1cn(COCCO)c(=O)[nH]c1=O", "note": "[Acyclothymidine, reference compound]", "values": [
      {"measurement": "IC50", "setting": "[1]; [4]", "result": "> 1000", "unit": "µM"}
    ]},
    {"smiles": "O=c1[nH]c(CN2CCCC2)c(Cl)c(=O)[nH]1", "note": "[Compound 1, 5-chloro-6-(1-pyrrolidinylmethyl)uracil]", "values": [
      {"measurement": "IC50", "setting": "[1]; [4]", "result": 2.2, "unit": "µM"}
    ]},
    {"smiles": "O=c1[nH]c(CN2CCCC2)c(Br)c(=O)[nH]1", "note": "[Compound 2, 5-bromo-6-(1-pyrrolidinylmethyl)uracil]", "values": [
      {"measurement": "IC50", "setting": "[1]; [4]", "result": 0.51, "unit": "µM"}
    ]},
    {"smiles": "O=c1[nH]c(CN2CCCC2)c(I)c(=O)[nH]1", "note": "[Compound 3]", "values": [
      {"measurement": "IC50", "setting": "[1]; [4]", "result": 1.3, "unit": "µM"}
    ]},
    {"smiles": "O=c1[nH]c(CN2CCC2)c(Cl)c(=O)[nH]1", "note": "[Compound 6, 5-chloro-6-(1-azetidinylmethyl)uracil]", "values": [
      {"measurement": "IC50", "setting": "[1]; [4]", "result": 2.6, "unit": "µM"}
    ]},
    {"smiles": "Cn1ccn(Cc2[nH]c(=O)[nH]c(=O)c2Cl)c1=N", "note": "[Compound 20]", "values": [
      {"measurement": "IC50", "setting": "[1]", "result": 0.24, "unit": "µM"}
    ]},
    {"smiles": "N=C1CCCN1Cc1[nH]c(=O)[nH]c(=O)c1Cl", "note": "[Compound 29, 5-chloro-6-(1-(2-iminopyrrolidinyl)-methyl)uracil hydrochloride]", "values": [
      {"measurement": "Average # of survival time", "setting": "[2]; 50 mg/kg/day, N = 8", "result": 88.5, "unit": "days"},
      {"measurement": "ILS (%) (increase of life span)", "setting": "[2]; 50 mg/kg/day", "result": 39.6, "unit": "%"},
      {"measurement": "Average # of survival time", "setting": "[2]; 100 mg/kg/day, N = 9", "result": 90.8, "unit": "days"},
      {"measurement": "ILS (%) (increase of life span)", "setting": "[2]; 100 mg/kg/day", "result": 43.2, "unit": "%"},
      {"measurement": "Number of metastasized mice", "setting": "[3]; 18.4 mg/kg/day", "result": "2/6"},
      {"measurement": "Number of metastasized mice", "setting": "[3]; 36.9 mg/kg/day", "result": "1/6"},
      {"measurement": "Metastasis inhibition rate (%)", "setting": "[3]; 18.4 mg/kg/day", "result": 50, "unit": "%"},
      {"measurement": "Metastasis inhibition rate (%)", "setting": "[3]; 36.9 mg/kg/day", "result": 75, "unit": "%"}
    ]},
    {"smiles": "Cc1c(CN2CCCC2=N)[nH]c(=O)[nH]c1=O", "note": "[Compound 32]", "values": [
      {"measurement": "IC50", "setting": "[1]", "result": 0.12, "unit": "µM"}
    ]},
    {"smiles": "N#Cc1c(CN2CCCC2=N)[nH]c(=O)[nH]c1=O", "note": "[Compound 33, 5-cyano-6-(1-(2-iminopyrrolidinyl)methyl)uracil]", "values": [
      {"measurement": "IC50", "setting": "[1]", "result": 0.017, "unit": "µM"}
    ]},
    {"smiles": "CN1CCN(Cc2[nH]c(=O)[nH]c(=O)c2Cl)C1=N", "note": "[Compound 34]", "values": [
      {"measurement": "IC50", "setting": "[1]", "result": 0.046, "unit": "µM"}
    ]},
    {"smiles": "N=C1NCCN1Cc1[nH]c(=O)[nH]c(=O)c1Br", "note": "[Compound 48, 5-bromo-6-(1-(2-iminoimidazolidinyl)methyl) uracil]", "values": [
      {"measurement": "IC50", "setting": "[1]", "result": 0.03, "unit": "µM"}
    ]},
    {"smiles": "O=c1[nH]c(CN2C=NCC2)c(Cl)c(=O)[nH]1", "note": "[Compound 50, 5-chloro-6-(2-imidazolin-1-ylmethyl)-uracil hydrochloride]", "values": [
      {"measurement": "IC50", "setting": "[1]; [4]", "result": 1.2, "unit": "µM"}
    ]},
    {"smiles": "O=c1[nH]c(Cn2ccnc2)c(Cl)c(=O)[nH]1", "note": "[Compound 51, 5-chloro-6-(1-imidazolylmethyl)uracil hydrochloride]", "values": [
      {"measurement": "IC50", "setting": "[1]; [4]", "result": 1, "unit": "µM"}
    ]},
    {"smiles": "N#Cc1c(CSC(=N)N)[nH]c(=O)[nH]c1=O", "note": "[Compound 56, 2-(5-cyanouracil-6-ylmethyl)isothiourea hydrochloride]", "values": [
      {"measurement": "IC50", "setting": "[1]; [4]", "result": 0.1, "unit": "µM"}
    ]},
    {"smiles": "CNC(=N)SCc1[nH]c(=O)[nH]c(=O)c1Cl", "note": "[Compound 57]", "values": [
      {"measurement": "IC50", "setting": "[1]; [4]", "result": 0.15, "unit": "µM"}
    ]},
    {"smiles": "N=C(N)NCc1[nH]c(=O)[nH]c(=O)c1Cl", "note": "[Compound 68, 5-chloro-6-(1-guanidino)methyluracil hydrochloride]", "values": [
      {"measurement": "IC50", "setting": "[1]; [4]", "result": 0.27, "unit": "µM"}
    ]},
    {"smiles": "CC(=N)NCc1[nH]c(=O)[nH]c(=O)c1Cl", "note": "[Compound 73, N-(5-chlorouracil-6-ylmethyl)-acetamidine hydrochloride]", "values": [
      {"measurement": "IC50", "setting": "[1]; [4]", "result": 1.5, "unit": "µM"}
    ]}
  ]
}
